Drawing on ChEMBL document CHEMBL5042504 (J Med Chem, 2022), this text covers IC50 for 21 compounds.

Test [1] addresses T1, Protein deacetylase HDAC6 (Homo sapiens, UniProt Q9UBN7).
T1 sequence (Q9UBN7 whole entry): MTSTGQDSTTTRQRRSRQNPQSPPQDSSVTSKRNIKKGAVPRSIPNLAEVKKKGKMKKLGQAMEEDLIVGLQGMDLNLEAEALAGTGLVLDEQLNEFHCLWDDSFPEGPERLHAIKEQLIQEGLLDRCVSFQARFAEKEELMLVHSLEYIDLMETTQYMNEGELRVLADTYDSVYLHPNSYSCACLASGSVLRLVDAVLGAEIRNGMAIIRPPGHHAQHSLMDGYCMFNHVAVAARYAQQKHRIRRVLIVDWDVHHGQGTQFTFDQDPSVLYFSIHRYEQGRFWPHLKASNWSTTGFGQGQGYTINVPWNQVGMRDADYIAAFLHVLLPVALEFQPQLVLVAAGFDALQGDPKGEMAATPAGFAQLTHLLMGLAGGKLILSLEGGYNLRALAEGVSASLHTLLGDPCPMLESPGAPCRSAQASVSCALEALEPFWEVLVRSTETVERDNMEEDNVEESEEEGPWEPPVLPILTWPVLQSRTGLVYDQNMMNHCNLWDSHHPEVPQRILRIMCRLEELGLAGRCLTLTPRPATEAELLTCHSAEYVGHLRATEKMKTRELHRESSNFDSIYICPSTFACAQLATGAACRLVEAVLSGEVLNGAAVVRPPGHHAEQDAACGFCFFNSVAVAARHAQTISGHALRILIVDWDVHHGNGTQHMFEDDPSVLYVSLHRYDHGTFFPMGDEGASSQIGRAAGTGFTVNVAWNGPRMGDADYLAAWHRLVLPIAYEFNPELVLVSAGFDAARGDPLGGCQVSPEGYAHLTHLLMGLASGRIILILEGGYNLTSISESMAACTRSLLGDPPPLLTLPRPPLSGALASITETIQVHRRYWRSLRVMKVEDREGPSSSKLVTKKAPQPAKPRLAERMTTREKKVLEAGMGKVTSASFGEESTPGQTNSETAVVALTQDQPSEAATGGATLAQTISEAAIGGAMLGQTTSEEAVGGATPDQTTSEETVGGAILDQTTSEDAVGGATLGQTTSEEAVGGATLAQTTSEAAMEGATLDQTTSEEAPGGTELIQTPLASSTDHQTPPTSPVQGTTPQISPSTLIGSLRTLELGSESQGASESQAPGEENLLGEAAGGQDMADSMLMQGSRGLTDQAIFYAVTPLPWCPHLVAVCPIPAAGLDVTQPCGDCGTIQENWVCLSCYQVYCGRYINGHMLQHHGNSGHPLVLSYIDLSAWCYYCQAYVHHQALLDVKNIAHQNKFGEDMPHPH
Put plainly: Inhibition of human recombinant HDAC6 using Boc-Lys(acetyl)-AMC substrate incubated for 2 hrs by fluorescence based assay.

Another test addresses Histone deacetylase 1 (Homo sapiens, UniProt Q13547). Nature of the test: Inhibition of human recombinant HDAC1 using Boc-Lys(acetyl)-AMC substrate incubated for 2 hrs by fluorescence based assay.
The target in another test is Histone deacetylase 3 (Homo sapiens, UniProt O15379). Nature of the test: Inhibition of human recombinant HDAC3 using Boc-Lys(acetyl)-AMC substrate incubated for 2 hrs by fluorescence based assay.
Another test deals with Histone deacetylase 2 (Homo sapiens, UniProt Q92769). Put plainly: Inhibition of human recombinant HDAC2 using Boc-Lys(acetyl)-AMC substrate incubated for 2 hrs by fluorescence based assay.
The subject of the next test is MV4-11. Put plainly: cells. Conditions: Homo sapiens, MV4-11, 48 h.

Sequence of Histone deacetylase 2 (Q92769 whole entry): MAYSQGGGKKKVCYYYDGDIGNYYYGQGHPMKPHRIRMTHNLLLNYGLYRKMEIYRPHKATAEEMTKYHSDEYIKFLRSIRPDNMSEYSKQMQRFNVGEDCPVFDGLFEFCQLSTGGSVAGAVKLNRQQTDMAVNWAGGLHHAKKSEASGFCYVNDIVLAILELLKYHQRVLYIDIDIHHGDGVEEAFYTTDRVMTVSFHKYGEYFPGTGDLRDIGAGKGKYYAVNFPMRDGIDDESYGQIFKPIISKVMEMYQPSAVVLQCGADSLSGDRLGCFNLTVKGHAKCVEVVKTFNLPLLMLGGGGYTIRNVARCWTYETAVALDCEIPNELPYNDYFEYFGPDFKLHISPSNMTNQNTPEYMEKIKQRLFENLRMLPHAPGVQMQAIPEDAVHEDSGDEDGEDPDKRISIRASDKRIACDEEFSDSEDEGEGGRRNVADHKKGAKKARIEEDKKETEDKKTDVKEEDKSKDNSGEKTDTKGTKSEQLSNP
Sequence of Histone deacetylase 3 (O15379 whole entry): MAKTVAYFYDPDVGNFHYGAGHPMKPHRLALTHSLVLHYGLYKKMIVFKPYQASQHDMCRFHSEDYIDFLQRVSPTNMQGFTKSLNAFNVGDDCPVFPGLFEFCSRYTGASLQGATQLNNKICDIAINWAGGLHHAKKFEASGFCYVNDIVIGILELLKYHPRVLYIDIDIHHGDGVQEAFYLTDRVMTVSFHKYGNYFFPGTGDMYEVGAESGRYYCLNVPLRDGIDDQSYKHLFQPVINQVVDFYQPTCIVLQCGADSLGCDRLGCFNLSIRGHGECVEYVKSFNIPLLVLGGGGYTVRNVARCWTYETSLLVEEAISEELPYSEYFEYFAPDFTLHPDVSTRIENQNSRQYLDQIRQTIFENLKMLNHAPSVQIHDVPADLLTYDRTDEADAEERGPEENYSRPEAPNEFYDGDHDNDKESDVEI
Sequence of Histone deacetylase 1 (Q13547 whole entry): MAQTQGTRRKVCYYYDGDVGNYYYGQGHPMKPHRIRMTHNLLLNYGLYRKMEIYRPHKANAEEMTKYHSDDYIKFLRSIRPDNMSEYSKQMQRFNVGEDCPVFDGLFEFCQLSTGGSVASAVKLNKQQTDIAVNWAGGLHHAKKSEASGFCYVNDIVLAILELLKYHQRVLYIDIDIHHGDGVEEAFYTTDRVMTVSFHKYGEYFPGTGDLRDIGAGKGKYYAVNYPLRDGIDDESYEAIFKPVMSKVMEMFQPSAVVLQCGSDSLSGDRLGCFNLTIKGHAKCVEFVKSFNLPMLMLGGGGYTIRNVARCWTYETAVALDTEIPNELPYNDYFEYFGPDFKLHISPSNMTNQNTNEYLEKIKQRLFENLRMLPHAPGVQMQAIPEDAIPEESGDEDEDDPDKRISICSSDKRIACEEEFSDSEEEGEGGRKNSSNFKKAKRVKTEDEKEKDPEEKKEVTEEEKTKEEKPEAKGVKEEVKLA
Description for MV4-11: Antiproliferative activity against human MV4-11 AML cells assessed as cell viability measured after 48 hrs by multiplate reader method

As usually defined, the IC50 is the midpoint of a concentration-inhibition curve. On to `CCCNNC(=O)c1ccc(CNC(=O)c2cc3cc(F)ccc3o2)cc1`, for which the concentration for half-maximal inhibition (IC50) in test [1] was over 10000 nM; on Histone deacetylase 1 it was 8.22 nM; at Histone deacetylase 3 it was 0.83 nM; at Histone deacetylase 2, 27.9 nM; with MV4-11 it was 56.5 nM.
On the same counts, the results for `CCCNNC(=O)c1ccc(CNC(=O)c2nc3ccccc3s2)cc1` are over 10000 nM, 9.73 nM, 1.31 nM, 42 nM and 43.6 nM.
On the same counts, the results for `CCCNNC(=O)c1ccc(CNC(=O)c2cnc3ccccc3c2)cc1` are over 10000 nM, 13.7 nM, 1.79 nM, 59.6 nM and 71 nM.
Regarding `CCCNNC(=O)c1ccc(CNC(=O)c2cc3cc(Br)ccc3o2)cc1`, the half-inhibitory concentration (IC50) is over 10000 nM in test [1]; 7.85 nM at Histone deacetylase 1; 0.62 nM at Histone deacetylase 3; 23.7 nM on Histone deacetylase 2; 159 nM in the test on MV4-11.
On the same counts, the results for `CCCNNC(=O)c1ccc(CNC(=O)c2cc3cc(OC)ccc3o2)cc1` are over 10000 nM, 7.4 nM, 0.28 nM, 26.1 nM and 52.1 nM.
Consider `CCCNNC(=O)c1ccc(CNC(=O)c2ccc3cnccc3c2)cc1`, for which the IC50 in test [1] was over 10000 nM; at Histone deacetylase 1, 17.1 nM; on Histone deacetylase 3, 1.03 nM; at Histone deacetylase 2, 39.6 nM; with MV4-11, 64.1 nM.
`C=CCOc1ccc2oc(C(=O)NCc3ccc(C(=O)NNCCC)cc3)cc2c1`: the IC50 is over 10000 nM in test [1]; 11.7 nM at Histone deacetylase 1; 0.85 nM on Histone deacetylase 3; 35.8 nM on Histone deacetylase 2; 53.8 nM with MV4-11.
Take `CCCNNC(=O)c1ccc(CNC(=O)c2cc3cc(O)ccc3o2)cc1`: the IC50 in test [1] is over 10000 nM; at Histone deacetylase 1, 3.91 nM; on Histone deacetylase 3 it was 0.51 nM; at Histone deacetylase 2, 16.1 nM; with MV4-11 it was 40 nM.
With `CCCNNC(=O)c1ccc(CNC(=O)c2cc3ccccc3s2)cc1`, the IC50 in test [1] was over 10000 nM.
For `CCCNNC(=O)c1ccc(CNC(=O)c2nc3ccccc3[nH]2)cc1`, the IC50 in test [1] was over 10000 nM; at Histone deacetylase 1, 11.3 nM; at Histone deacetylase 3 it was 1.44 nM; on Histone deacetylase 2, 33.4 nM; with MV4-11, 53.1 nM.
In the case of `CCCNNC(=O)c1ccc(CNC(=O)c2cc3cc(Cl)ccc3o2)cc1`, the half-maximal inhibitory concentration (IC50) was over 10000 nM in test [1]; 8.91 nM on Histone deacetylase 1; 0.62 nM at Histone deacetylase 3; 28.1 nM at Histone deacetylase 2; 248 nM in the test with MV4-11.
As to `CCCNNC(=O)c1ccc(CNC(=O)c2ccc3ccncc3c2)cc1`, the 50% inhibitory concentration (IC50) is over 10000 nM in test [1]; 20.8 nM at Histone deacetylase 1; 1.55 nM on Histone deacetylase 3; 30.1 nM at Histone deacetylase 2; 74 nM in the test on MV4-11.
With `CCCNNC(=O)c1ccc(CNC(=O)c2cc3ccccc3cn2)cc1`, the half-maximal inhibitory concentration (IC50) is over 10000 nM in test [1]; 8.8 nM on Histone deacetylase 1; 1.48 nM at Histone deacetylase 3; 30.9 nM at Histone deacetylase 2; 45.9 nM in the test with MV4-11.
Consider `CCCNNC(=O)c1ccc(CNC(=O)c2ccc3ccccc3c2)cc1`, for which the IC50 in test [1] is over 10000 nM; at Histone deacetylase 1 it was 7.98 nM; on Histone deacetylase 3, 0.89 nM; on Histone deacetylase 2, 30.5 nM; with MV4-11 it was 43.6 nM.
As for `CCCNNC(=O)c1ccc(CNC(=O)c2cc3cc(Cl)ccc3[nH]2)cc1`, the IC50 is over 10000 nM in test [1]; 13.8 nM on Histone deacetylase 1; 0.66 nM at Histone deacetylase 3; 46.1 nM on Histone deacetylase 2; 37.7 nM in the test with MV4-11.
For the compound `CCCNNC(=O)c1ccc(CNC(=O)c2cc3cc(OC)ccc3[nH]2)cc1`, the half-inhibitory concentration (IC50) in test [1] is over 10000 nM; on Histone deacetylase 1, 4.66 nM; on Histone deacetylase 3, 0.58 nM; on Histone deacetylase 2, 16.4 nM; with MV4-11, 37.5 nM.
As for `CCCNNC(=O)c1ccc(CNC(=O)c2cc3cc(Br)ccc3[nH]2)cc1`, the IC50 in test [1] is over 10000 nM; on Histone deacetylase 1, 58.3 nM; at Histone deacetylase 3, 1.31 nM; at Histone deacetylase 2, 186 nM; with MV4-11, 66.5 nM.
On the same counts, the results for `CCCNNC(=O)c1ccc(CNC(=O)c2ccc3cnccc3n2)cc1` are over 10000 nM, 16.2 nM, 2.03 nM, 41.4 nM and 59.7 nM.
For `CCCNNC(=O)c1ccc(CNC(=O)c2ccc3ccccc3n2)cc1`, the IC50 in test [1] is over 10000 nM; on Histone deacetylase 1, 10.7 nM; at Histone deacetylase 3, 0.9 nM; on Histone deacetylase 2 it was 57.3 nM; in the test with MV4-11, 57.8 nM.
On to `CCCNNC(=O)c1ccc(CNC(=O)c2cc3ccccc3o2)cc1`, for which the IC50 in test [1] is over 10000 nM; at Histone deacetylase 1, 3.52 nM; at Histone deacetylase 3, 0.38 nM; on Histone deacetylase 2 it was 15.1 nM.
Turning to `CCCNNC(=O)c1ccc(CNC(=O)c2cc3cc(F)ccc3[nH]2)cc1`, the IC50 in test [1] is over 10000 nM; on Histone deacetylase 1, 12.9 nM; at Histone deacetylase 3, 1.61 nM; on Histone deacetylase 2 it was 52.7 nM; in the test with MV4-11, 91.2 nM.
